Test results as given in US20130157954A1, “METHODS FOR TREATMENT OR PROPHYLAXIS OF KIDNEY OR LIVER DYSFUNCTION” (NPS PHARMACEUTICALS, INC., priority 2010, published 2013).

Assay: Example 2: liver biomarkers (albumin, gamma glutamyl transferase, total bilirubin, ALT, AST, ALP) in short bowel syndrome patients, every four weeks for 24 weeks; also sorted by >10% change from baseline
Assay type: in vivo, Human
Details: 0.05 mg/kg/d; for Bilirubin: subjects Within 10% of Baseline / Bilirubin: subjects with >10% decrease from Baseline / Bilirubin: subjects with >10% increase from Baseline / ALT: subjects Within 10% of Baseline / ALT: subjects with >10% decrease from Baseline / ALT: subjects with >10% increase from Baseline / AST: subjects Within 10% of Baseline / AST: subjects with >10% decrease from Baseline / AST: subjects with >10% increase from Baseline / Albumin: subjects Within 10% of Baseline / Albumin: subjects with >10% decrease from Baseline / Albumin: subjects with >10% increase from Baseline / Alkaline Phosphatase: subjects Within 10% of Baseline / Alkaline Phosphatase: subjects with >10% decrease from Baseline / Alkaline Phosphatase: subjects with >10% increase from Baseline: m = 40
Procedure: To further confirm the results of Example 1, a further study was conducted involving more individuals and additional diagnostic biomarkers. Human patients with short bowel syndrome were divided into two groups: a control group (43 total individuals) to receive placebo, and an experimental group (42 total individuals) to receive teduglutide at 0.05 mg/kg/day throughout the study. Patients were treated by subcutaneous injection of placebo or the appropriate dose of teduglutide. Known biomarkers of liver function were monitored every four weeks, for 24 weeks. The liver biomarkers tested included albumin, gamma glutamyl transferase, total bilirubin, ALT and AST and ALP. Before administration of placebo or teduglutide, diagnostic biomarker levels were tested to establish a baseline for each individual.
To determine the effect of GLP-2 on the levels of the diagnostic biomarkers, the average level of each biomarker was measured for the placebo and teduglutide treated groups for each visit. Furthermore, the average change from baseline was calculated using the established baseline values. For FIGS. 17-28, p-values were calculated using the t-test.
P values are provided, which were calculated for each distribution of biomarker changes for each week using the chi-squared test.

CC[C@H](C)[C@H](NC(=O)[C@H](Cc1ccccc1)NC(=O)[C@H](CC(=O)O)NC(=O)[C@H](CCCNC(=N)N)NC(=O)[C@H](C)NC(=O)[C@H](C)NC(=O)[C@H](CC(C)C)NC(=O)[C@H](CC(N)=O)NC(=O)[C@H](CC(=O)O)NC(=O)[C@H](CC(C)C)NC(=O)[C@@H](NC(=O)[C@@H](NC(=O)[C@H](CC(N)=O)NC(=O)[C@H](CCSC)NC(=O)[C@H](CCC(=O)O)NC(=O)[C@H](CC(=O)O)NC(=O)[C@H](CO)NC(=O)[C@H](Cc1ccccc1)NC(=O)[C@H](CO)NC(=O)CNC(=O)[C@H](CC(=O)O)NC(=O)CNC(=O)[C@@H](N)Cc1c[nH]cn1)[C@@H](C)O)[C@@H](C)CC)C(=O)N[C@@H](CC(N)=O)C(=O)N[C@@H](Cc1c[nH]c2ccccc12)C(=O)N[C@@H](CC(C)C)C(=O)N[C@H](C(=O)N[C@@H](CCC(N)=O)C(=O)N[C@H](C(=O)N[C@@H](CCCCN)C(=O)N[C@H](C(=O)N[C@H](C(=O)N[C@@H](CC(=O)O)C(=O)O)[C@@H](C)O)[C@@H](C)CC)[C@@H](C)O)[C@@H](C)CC [teduglutide]
Bilirubin: subjects Within 10% of Baseline (Week 2): 5 (12.5%) n (%) | Bilirubin: subjects with >10% decrease from Baseline (Week 2): 28 (70.0%) n (%) | Bilirubin: subjects with >10% increase from Baseline (Week 2): 7 (17.5%) n (%) | ALT Change from Baseline, Max (Week 4): 29 U/L | ALT Change from Baseline, Mean (Week 4): −9.2 U/L | ALT Change from Baseline, Median (Week 4): −7 U/L | ALT Change from Baseline, Min (Week 4): −44 U/L | ALT Observed Value, Max (Week 4): 104 U/L | ALT Observed Value, Median (Week 4): 29 U/L | ALT Observed Value, Min (Week 4): 8 U/L | AST Change from Baseline, Max (Week 4): 43 U/L | AST Change from Baseline, Mean (Week 4): −3.5 U/L | AST Change from Baseline, Median (Week 4): −5 U/L | AST Change from Baseline, Min (Week 4): −31 U/L | AST Observed Value, Max (Week 4): 89 U/L | AST Observed Value, Min (Week 4): 13 U/L | Albumin Change from Baseline, Max (Week 4): 5 g/L | Albumin Change from Baseline, Mean (Week 4): -0.7 g/L | Albumin Change from Baseline, Median (Week 4): -1 g/L | Albumin Change from Baseline, Min (Week 4): -7 g/L | Albumin Observed Value, Max (Week 4): 47 g/L | Albumin Observed Value, Median (Week 4): 42 g/L | Albumin Observed Value, Min (Week 4): 34 g/L | Alkaline Phosphatase Change from Baseline, Max (Week 4): 34 U/L | Alkaline Phosphatase Change from Baseline, Min (Week 4): −89 U/L | Alkaline Phosphatase Observed Value, Max (Week 4): 307 U/L | Alkaline Phosphatase Observed Value, Min (Week 4): 54 U/L | Bilirubin Change from Baseline, Max (Week 4): 9.0 µmol/L | Bilirubin Change from Baseline, Mean (Week 4): -1.10 µmol/L | Bilirubin Change from Baseline, Median (Week 4): -1.5 µmol/L | Bilirubin Change from Baseline, Min (Week 4): -14.2 µmol/L | Bilirubin Observed Value, Max (Week 4): 54.0 µmol/L | Bilirubin Observed Value, Min (Week 4): 3.4 µmol/L | Gamma Glutamyl Transferase Change from Baseline, Max (Week 4): 105 U/L | Gamma Glutamyl Transferase Change from Baseline, Mean (Week 4): 1.7 U/L | Gamma Glutamyl Transferase Change from Baseline, Median (Week 4): −0.5 U/L | Gamma Glutamyl Transferase Change from Baseline, Min (Week 4): −88 U/L | Gamma Glutamyl Transferase Observed Value, Max (Week 4): 309 U/L | Gamma Glutamyl Transferase Observed Value, Min (Week 4): 12 U/L | ALT: subjects Within 10% of Baseline (Week 4): 8 (20.0%) n (%) | ALT: subjects with >10% decrease from Baseline (Week 4): 26 (65.0%) n (%) | ALT: subjects with >10% increase from Baseline (Week 4): 6 (15.0%) n (%) | AST: subjects Within 10% of Baseline (Week 4): 6 (15.0%) n (%) | AST: subjects with >10% decrease from Baseline (Week 4): 26 (65.0%) n (%) | AST: subjects with >10% increase from Baseline (Week 4): 8 (20.0%) n (%) | Albumin: subjects Within 10% of Baseline (Week 4): 35 (87.5%) n (%) | Albumin: subjects with >10% decrease from Baseline (Week 4): 3 (7.5%) n (%) | Albumin: subjects with >10% increase from Baseline (Week 4): 2 (5.0%) n (%) | Alkaline Phosphatase: subjects Within 10% of Baseline (Week 4): 16 (40.0%) n (%) | Alkaline Phosphatase: subjects with >10% decrease from Baseline (Week 4): 22 (55.0%) n (%) | Alkaline Phosphatase: subjects with >10% increase from Baseline (Week 4): 2 (5.0%) n (%) | Bilirubin: subjects Within 10% of Baseline (Week 4): 7 (17.5%) n (%) | Bilirubin: subjects with >10% decrease from Baseline (Week 4): 19 (47.5%) n (%) | Bilirubin: subjects with >10% increase from Baseline (Week 4): 14 (35.0%) n (%) | ALT Change from Baseline, Max (Week 8): 20 U/L | ALT Change from Baseline, Median (Week 8): −5.5 U/L | ALT Change from Baseline, Min (Week 8): −65 U/L | ALT Observed Value, Max (Week 8): 138 U/L | ALT Observed Value, Median (Week 8): 26 U/L | ALT Observed Value, Min (Week 8): 9 U/L | AST Change from Baseline, Max (Week 8): 17 U/L | AST Change from Baseline, Mean (Week 8): −5.1 U/L | AST Change from Baseline, Median (Week 8): −5 U/L | AST Change from Baseline, Min (Week 8): −46 U/L | AST Observed Value, Max (Week 8): 63 U/L | AST Observed Value, Min (Week 8): 8 U/L | Albumin Change from Baseline, Max (Week 8): 4 g/L | Albumin Change from Baseline, Mean (Week 8): -0.7 g/L | Albumin Change from Baseline, Median (Week 8): -1 g/L | Albumin Change from Baseline, Min (Week 8): -5 g/L | Albumin Observed Value, Max (Week 8): 48 g/L | Albumin Observed Value, Median (Week 8): 42 g/L | Albumin Observed Value, Min (Week 8): 36 g/L | Alkaline Phosphatase Change from Baseline, Max (Week 8): 19 U/L | Alkaline Phosphatase Change from Baseline, Min (Week 8): −105 U/L | Alkaline Phosphatase Observed Value, Max (Week 8): 341 U/L | Alkaline Phosphatase Observed Value, Median (Week 8): 94 U/L | Alkaline Phosphatase Observed Value, Min (Week 8): 46 U/L | Bilirubin Change from Baseline, Max (Week 8): 6.8 µmol/L | Bilirubin Change from Baseline, Mean (Week 8): -1.60 µmol/L | Bilirubin Change from Baseline, Median (Week 8): -0.95 µmol/L | Bilirubin Change from Baseline, Min (Week 8): -14.9 µmol/L | Bilirubin Observed Value, Max (Week 8): 61.8 µmol/L | Bilirubin Observed Value, Min (Week 8): 3.4 µmol/L | Gamma Glutamyl Transferase Change from Baseline, Max (Week 8): 77 U/L | Gamma Glutamyl Transferase Change from Baseline, Mean (Week 8): −5.7 U/L | Gamma Glutamyl Transferase Change from Baseline, Median (Week 8): −5.5 U/L | Gamma Glutamyl Transferase Change from Baseline, Min (Week 8): −145 U/L | Gamma Glutamyl Transferase Observed Value, Max (Week 8): 281 U/L | Gamma Glutamyl Transferase Observed Value, Median (Week 8): 46 U/L | Gamma Glutamyl Transferase Observed Value, Min (Week 8): 6 U/L | ALT: subjects Within 10% of Baseline (Week 8): 7 (17.5%) n (%) | ALT: subjects with >10% decrease from Baseline (Week 8): 26 (65.0%) n (%) | ALT: subjects with >10% increase from Baseline (Week 8): 7 (17.5%) n (%) | AST: subjects Within 10% of Baseline (Week 8): 8 (20.0%) n (%) | AST: subjects with >10% decrease from Baseline (Week 8): 24 (60.0%) n (%) | AST: subjects with >10% increase from Baseline (Week 8): 8 (20.0%) n (%) | Albumin: subjects Within 10% of Baseline (Week 8): 38 (95.0%) n (%) | Albumin: subjects with >10% decrease from Baseline (Week 8): 1 (2.5%) n (%) | Albumin: subjects with >10% increase from Baseline (Week 8): 1 (2.5%) n (%) | Alkaline Phosphatase: subjects Within 10% of Baseline (Week 8): 13 (32.5%) n (%) | Alkaline Phosphatase: subjects with >10% decrease from Baseline (Week 8): 25 (62.5%) n (%) | Alkaline Phosphatase: subjects with >10% increase from Baseline (Week 8): 2 (5.0%) n (%)
